Source: patent US20140303144A1, “COMPOUNDS AND METHODS OF TREATING HYPERTENSION” (Medivation Technologies, Inc., priority 2011, published 2014)

How the values were obtained:
[1] = target: T1, human recombinant adrenergic α2A receptor (Homo sapiens, UniProt P08913); assay: Adrenergic α2A radioligand binding assay ([3H]MK-912); conditions: 0.1 μM compound; read-out: Percentage inhibition of ligand binding, Adrenergic α2A
T1 construct: expressed in transfected cells; host or cells: insect Sf9 cells
T1 sequence (P08913 1-465): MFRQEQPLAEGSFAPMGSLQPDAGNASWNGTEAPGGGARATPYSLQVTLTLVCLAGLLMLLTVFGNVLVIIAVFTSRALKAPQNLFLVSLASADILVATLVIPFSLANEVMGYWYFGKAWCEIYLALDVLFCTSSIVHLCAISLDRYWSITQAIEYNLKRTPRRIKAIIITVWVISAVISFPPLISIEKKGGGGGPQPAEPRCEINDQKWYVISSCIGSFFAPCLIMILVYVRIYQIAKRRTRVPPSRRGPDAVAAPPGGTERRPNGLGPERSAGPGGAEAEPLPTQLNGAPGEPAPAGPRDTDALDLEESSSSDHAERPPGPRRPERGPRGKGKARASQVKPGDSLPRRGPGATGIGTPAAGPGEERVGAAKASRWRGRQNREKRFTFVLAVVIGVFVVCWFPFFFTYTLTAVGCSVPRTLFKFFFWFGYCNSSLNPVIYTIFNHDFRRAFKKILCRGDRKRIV
Procedure: To evaluate in radioligand binding assays the activity of compounds of the invention, human recombinant adrenergic α2A receptor expressed in insect Sf9 cells (Uhlen, S. et al, J. Pharmacol. Exp. Ther. 271:1558, 1994) in a modified Tris-HCl buffer (50 mM Tris-HCl, pH 7.4, 12.5 mM MgCl2, 2 mM EDTA) was used. Compounds of invention were incubated with 1 nM [^3H]MK-912 for 60 min at 25° C. MK912 was (2S-trans)-1,3,4,5′,6,6′,7,12b-octahydro-1′,3′-dimethyl-spiro[2H-benzofuro[2,3-a]quinolizine-2,4′(1′H)-pyrimidin]-2′(3′H)-one hydrochloride Non-specific binding was estimated in the presence of 10 μM WB-4101 (2-(2,6-Dimethoxyphenoxyethyl)aminomethyl-1,4-benzodioxane hydrochloride). Receptor proteins were filtered and washed, the filters were then counted to determine [^3H]MK-912 specifically bound. Compounds were screened at 1 μM or lower, using 1% DMSO as vehicle. Compounds of the invention were tested in this biochemical assay and percent inhibition of specific binding was determined. Biochemical assay results are presented as the percent inhibition of specific binding in Tables B1A-B1D.

[2] = target: T2, rat adrenergic α1B receptor obtained from Wistar Rat liver (Rattus norvegicus, UniProt P15823); assay: Adrenergic α1B radioligand binding assay ([3H]Prazosin); conditions: 0.1 μM compound; read-out: Percentage inhibition of ligand binding, Adrenergic α1B
T2 construct: rat adrenergic α1B receptor obtained from Wistar Rat liver; from tissue; host or cells: Wistar rat liver
T2 sequence (P15823 1-515): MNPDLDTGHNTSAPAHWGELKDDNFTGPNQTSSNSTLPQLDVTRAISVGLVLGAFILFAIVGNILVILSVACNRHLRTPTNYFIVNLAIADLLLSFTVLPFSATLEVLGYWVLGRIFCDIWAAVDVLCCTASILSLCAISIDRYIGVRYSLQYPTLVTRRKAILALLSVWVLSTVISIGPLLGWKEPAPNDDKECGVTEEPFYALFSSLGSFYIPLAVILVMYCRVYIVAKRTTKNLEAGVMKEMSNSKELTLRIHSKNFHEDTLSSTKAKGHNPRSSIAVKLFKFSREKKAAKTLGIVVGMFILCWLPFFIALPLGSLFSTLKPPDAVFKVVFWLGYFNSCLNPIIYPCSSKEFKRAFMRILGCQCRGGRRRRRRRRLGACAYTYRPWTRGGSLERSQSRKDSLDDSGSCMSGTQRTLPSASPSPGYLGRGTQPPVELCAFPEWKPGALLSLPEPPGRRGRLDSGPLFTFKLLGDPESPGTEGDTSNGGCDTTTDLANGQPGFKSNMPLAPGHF
Procedure: To evaluate in radioligand binding assays the activity of compounds of the invention, rat adrenergic α1B receptor obtained from Wistar Rat liver (Garcia-S'ainz, J. et al, Biochem. Biophys. Res. Commun. 186:760, 1992; Michel, A. et al, Br. J. Pharmacol. 98:883, 1989) in a modified Tris-HCl buffer (50 mM Tris-HCl buffer, pH 7.4, 0.5 mM EDTA) was used. Compounds of the invention were incubated with 0.25 nM [^3H]Prazosin for 60 min at 25° C. Non-specific binding was estimated in the presence of 10 μM phentolamine. Receptor proteins were filtered and washed, the filters were then counted to determine [^3H]Prazosin specifically bound. Compounds were screened at 1 μM or lower, using 1% DMSO as vehicle. Compounds of the invention were tested in this biochemical assay and percent inhibition of specific binding was determined. Biochemical assay results are presented as the percent inhibition of specific binding in Tables B1A-B1D.

[3] = target: T3, human recombinant adrenergic α1D receptor (Homo sapiens, UniProt P25100); assay: Adrenergic α1D radioligand binding assay ([3H]Prazosin); conditions: 0.1 μM compound; read-out: Percentage inhibition of ligand binding, Adrenergic α1D
T3 construct: expressed in transfected cells; host or cells: HEK-293 cells
T3 sequence (P25100 1-572): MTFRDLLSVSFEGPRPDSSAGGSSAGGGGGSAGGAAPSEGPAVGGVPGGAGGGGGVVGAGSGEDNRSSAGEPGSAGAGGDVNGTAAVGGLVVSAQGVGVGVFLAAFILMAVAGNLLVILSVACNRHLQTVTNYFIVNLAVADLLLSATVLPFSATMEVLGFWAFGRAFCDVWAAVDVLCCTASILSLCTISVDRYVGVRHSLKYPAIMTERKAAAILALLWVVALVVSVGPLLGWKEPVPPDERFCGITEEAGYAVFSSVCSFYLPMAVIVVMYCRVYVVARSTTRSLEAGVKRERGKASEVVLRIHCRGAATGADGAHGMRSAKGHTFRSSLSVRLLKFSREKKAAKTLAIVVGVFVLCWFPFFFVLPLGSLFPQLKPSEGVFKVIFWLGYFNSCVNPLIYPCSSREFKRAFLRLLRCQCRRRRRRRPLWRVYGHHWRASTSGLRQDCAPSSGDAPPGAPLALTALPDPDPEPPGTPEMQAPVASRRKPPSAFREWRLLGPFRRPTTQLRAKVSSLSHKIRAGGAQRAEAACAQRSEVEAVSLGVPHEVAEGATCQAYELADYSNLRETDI
Procedure: To evaluate in radioligand binding assays the activity of compounds of the invention, human recombinant adrenergic α1D receptor expressed in human embryonic kidney (HEK-293) cells (Kenny, B. et al, Br. J. Pharmacol. 115(6):981, 1995) in a 50 mM Tris-HCl buffer, pH 7.4, was used. Compounds were incubated with 0.6 nM [3H]Prazosin for 60 min at 25° C. Non-specific binding was estimated in the presence of 10 μM phentolamine. Receptor proteins were filtered and washed, the filters were then counted to determine [3H]Prazosin specifically bound. Compounds were screened at 1 μM or lower, using 1% DMSO as vehicle. Biochemical assay results are presented as the percent inhibition of specific binding in Tables B1A-B1D.

SMILES | inhibition at 0.1 µM [1] | inhibition at 0.1 µM [2] | inhibition at 0.1 µM [3]
Cc1ccc(C#Cc2cc(Cl)cc3c4c(n(C)c23)CCN(C)C4)cn1 [A18] | 6% | 30% | 34%
C/C(=C\c1cc(C)cc2c3c(n(C)c12)CCN(C)C3)c1ccc(C)nc1 [A15] | 20% | 0% | 5%
C/C(=C\c1cc(C)cc2c3c(n(C)c12)CCN(C)C3)c1ccncc1 [A11] | 4% | -1% | -1%
Cc1cc(C#Cc2nccs2)c2[nH]c3c(c2c1)CN(C)CC3 [A16] | 31% | 1% | -2%
Cc1cc(CCc2ccc(C)nc2)c2c(c1)c1c(n2C)CCN(C)C1 [A13] | -12% | -9% | 8%
Cc1cc(C#Cc2cccs2)c2[nH]c3c(c2c1)CN(C)CC3 [A8] | 20% | -3% | 3%
C#Cc1cc(C)cc2c3c(n(C)c12)CCN(C)C3 [A10] | 23% | 11% | 26%
Cc1cc(/C=C/c2ccc(C)nc2)c2c(c1)c1c(n2C)CCN(C)C1 [A14] | 12% | 0% | -9%
Cc1cc(C#Cc2ccncc2)c2c(c1)c1c(n2C)CCN(C)C1 [A17] | 14% | 9% | -5%
Cc1cc(C#Cc2ccc(C)nc2)c2c(c1)c1c(n2C)CCN(C)C1 [A12] | -4% | 2% | 38%
Cc1cc(-c2ccc(F)cc2)c2c(c1)c1c(n2C)CCN(C)C1 [A7] | 10% | 2% | 4%
Cc1cc(-c2ccncc2)c2c(c1)c1c(n2C)CCN(C)C1 [A9] | 0% | -9% | -1%

Next, values leading:

inhibition at 0.1 µM [1] | inhibition at 0.1 µM [2] | inhibition at 0.1 µM [3] | SMILES
5% | 10% | -3% | Cc1ccc2c(c1)c1c3n2C(c2ccccc2)CCC3(C)CN(C)C1 (stereo not drawn) [D12]
-1% | -3% | -6% | Cc1ccc2c(c1)c1c3n2C(c2ccccc2)=CCC3(C)CN(C)C1 (stereo not drawn) [D10]
14% | -6% | -2% | Cc1cc2c3c(c1)c1c(n3C[C@@](C)(c3ccncc3)O[C@H]2C)CCN(C)C1 [B162]
40% | 0% | 0% | Cc1cc2c3c(c1)c1c(n3CC(C)(c3ccncc3)OC(C)C2)CCN(C)C1 (stereo not drawn) [B165]
5% | 6% | 15% | Cc1cc2c3c(c1)c1c(n3C[C@](C)(c3ccncc3)O[C@H]2C)CCN(C)C1 [B163]
8% | 16% | -5% | Cc1ccc2c(c1)c1c3n2CC(c2ccncc2)=CCC3(C)CN(C)C1 (stereo not drawn) [D11]
-1% | 2% | 15% | Cc1cc2c3c(c1)c1c(n3CC(C)(c3ccc(C)nc3)OC(C)C2)CCN(C)C1 (stereo not drawn) [B160]
75% | 28% | 28% | Cc1cc2c3c(c1)c1c(n3C(c3ccccc3)C2)CCN(C)C1 (stereo not drawn) [B12]
